Reference: patent US4558134A, “Certain phenoxy-pyridine-carbonitriles having antiviral activity” (The Dow Chemical Company, priority 1983, dated 1985)
Values after ≈ are worked out from the molar mass of the structure shown. Like-named read-outs stand apart in the source and are kept apart here.

Assays:
[1] = system: rhinovirus type 39 (RV-39); test: Tissue culture testing, reduction of viral cytopathic effect, RV-39; format: cell-based; conditions: Enterovirus, read-out: Lowest concentration of the compound necessary to cause a 50 percent reduction in cytopathic effect, RV-39
Coxsackie A21 virus = test: Continuous Oral Feeding test in mice challenged IP with Coxsackie A21 virus; conditions: 0.06% by weight in diet; 10 days; >3.84 active (95% confidence level)
[2] = system: rhinovirus type 64 (RV-64); test: Tissue culture testing, reduction of viral cytopathic effect, RV-64; format: cell-based; conditions: Enterovirus, read-out: Lowest concentration of the compound necessary to cause a 50 percent reduction in cytopathic effect, RV-64
[3] = system: rhinovirus type 1A (RV-1A); test: Tissue culture testing, reduction of viral cytopathic effect, RV-1A; format: cell-based; conditions: Enterovirus, read-out: Lowest concentration of the compound necessary to cause a 50 percent reduction in cytopathic effect, RV-1A
[4] = system: polio virus type 2 (Polio-2); test: organism not typed; format: cell-based; conditions: HeLa, read-out: Lowest concentration of the compound necessary to cause a 50 percent reduction in cytopathic effect, Polio-2
in vitro = conditions: human, hela cells
rhinovirus type 2 (RV-2) = test: Tissue culture testing, reduction of viral cytopathic effect, RV-2; format: cell-based; conditions: Enterovirus, read-out: Lowest concentration of the compound necessary to cause a 50 percent reduction in cytopathic effect, RV-2
[5] = system: Coxsackie A21 virus (Cox A21); test: Tissue culture testing, reduction of viral cytopathic effect, Cox A21; format: cell-based; conditions: HeLa cells, 48 and 72 hours, read-out: Lowest concentration of the compound necessary to cause a 50 percent reduction in cytopathic effect, CoxA21
[6] = HeLa cells, RV-39, 48 and 72 hours
[7] = HeLa cells, RV-64, 48 and 72 hours
[8] = HeLa cells, RV-1A, 48 and 72 hours
[9] = HeLa cells, RV-2, 48 and 72 hours

SMILES	EC50 [1, 6]	Continuous Oral Feeding X^2 (chi-square, mortality) (Coxsackie A21 virus)	EC50 [2, 7]	EC50 [3, 8]	EC50 [4]	MCC (in vitro)	EC50 (rhinovirus type 2 (RV-2); [9])	EC50 [5]	EC50 ([1]; HeLa)	EC50 ([3]; HeLa)	EC50 ([2]; HeLa)	EC50 (rhinovirus type 2 (RV-2); HeLa)
CCSc1ccc(Oc2ccc(Cl)c(Cl)c2)nc1C#N [Example 20, 6-(3,4-Dichlorophenoxy)-3-ethylthio-2-pyridinecarbonitrile]	6.25 µg/mL (≈ 19.2 µM)	6.5	12.5 µg/mL (≈ 38.4 µM)	3.13 µg/mL (≈ 9.62 µM)	< 0.78 µg/mL	> 12.5 µg/mL	3.13 µg/mL (≈ 9.62 µM)	0.03 µg/mL (≈ 0.0922 µM)				
CCSc1ccc(Oc2ccc(Cl)c(Cl)c2)c(C#N)n1 [Example 21, 3-(3,4-Dichlorophenoxy)-6-ethylthio-2-pyridinecarbonitrile]			2.5 µg/mL (≈ 7.69 µM)	2.5 µg/mL (≈ 7.69 µM)		2.5 µg/mL	0.6 µg/mL (≈ 1.84 µM)	0.6 µg/mL (≈ 1.84 µM)				
CCSc1cnc(Oc2ccc(Cl)c(Cl)c2)cc1C#N [Example 22, 2-(3,4-Dichlorophenoxy)-5-ethylthio-4-pyridinecarbonitrile]				> 50 µg/mL		50 µg/mL	2.5 µg/mL (≈ 7.69 µM)	0.63 µg/mL (≈ 1.94 µM)				
CCSc1cc(C#N)c(Oc2ccc(Cl)c(Cl)c2)cn1 [Example 23, 5-(3,4-Dichlorophenoxy)-2-ethylthio-4-pyridinecarbonitrile]				> 50 µg/mL		50 µg/mL	2.5 µg/mL (≈ 7.69 µM)	2.5 µg/mL (≈ 7.69 µM)				
CSc1cc(C#N)c(Oc2ccc(Cl)c(Cl)c2)cn1 [Example 24, 5-(3,4-Dichlorophenoxy)-2-methylthio-4-pyridinecarbonitrile]			> 50 µg/mL	> 50 µg/mL		> 50 µg/mL	> 50 µg/mL	1.25 µg/mL (≈ 4.02 µM)				
CSc1ccc(Oc2ccc(Cl)c(Cl)c2)nc1C#N [Example 25, 6-(3,4-Dichlorophenoxy)-3-methylthio-2-pyridinecarbonitrile]				25 µg/mL (≈ 80.3 µM)		> 50 µg/mL		< 3.1 µg/mL				
CCSc1ccc(Oc2ccc(C(=O)c3ccccc3)cc2)nc1C#N [Example 26, 6-(4-Benzoylphenoxy)-3-ethylthio-2-pyridinecarbonitrile]		27.5		25 µg/mL (≈ 69.4 µM)		50 µg/mL	< 3.1 µg/mL	< 3.1 µg/mL				
CCSc1ncc(Oc2ccc(Cl)c(Cl)c2)cc1C#N [Example 27, 5-(3,4-Dichlorophenoxy)-2-ethylthio-3-pyridinecarbonitrile]						> 50 µg/mL		< 3.13 µg/mL				
CCSc1cnc(Oc2ccc(Cl)c(Cl)c2)c(C#N)c1 [Example 28, 2-(3,4-Dichlorophenoxy)-5-ethylthio-3-pyridinecarbonitrile]			> 50 µg/mL	> 50 µg/mL		> 50 µg/mL	> 50 µg/mL	1.25 µg/mL (≈ 3.84 µM)				
C[S+]([O-])c1ccc(Oc2ccc(Cl)c(Cl)c2)nc1C#N (stereo not drawn) [Example 29, 6-(3,4-Dichlorophenoxy)-3-methylsulfinyl-2-pyridinecarbonitrile]				12.5 µg/mL (≈ 38.2 µM)		> 50 µg/mL	12.5 µg/mL (≈ 38.2 µM)	12.5 µg/mL (≈ 38.2 µM)				
C[S+]([O-])c1ccc(Oc2ccc(Cl)c(Cl)c2)nc1C(N)=O (stereo not drawn) [Example 30, 6-(3,4-Dichlorophenoxy)-3-methylsulfinyl-2-pyridinecarboxamide]				6.3 µg/mL (≈ 18.2 µM)		25 µg/mL	6.3 µg/mL (≈ 18.2 µM)	< 3.1 µg/mL				
CC[S+]([O-])c1ccc(Oc2ccc(Cl)c(Cl)c2)nc1C#N (stereo not drawn) [Example 31, 6-(3,4-Dichlorophenoxy)-3-ethylsulfinyl-2-pyridinecarbonitrile]				12.5 µg/mL (≈ 36.6 µM)		50 µg/mL	12.5 µg/mL (≈ 36.6 µM)	< 3.1 µg/mL				
CS(=O)(=O)c1ccc(Oc2ccc(Cl)c(Cl)c2)nc1C#N [Example 32, 6-(3,4-Dichlorophenoxy)-3-methylsulfonyl-2-pyridinecarbonitrile]		10.1	3.13 µg/mL (≈ 9.12 µM)	6.25 µg/mL (≈ 18.2 µM)	> 12.5 µg/mL	> 12.5 µg/mL	6.25 µg/mL (≈ 18.2 µM)	> 50 µg/mL	> 12.5 µg/mL			
CCS(=O)(=O)c1ccc(Oc2ccc(Cl)c(Cl)c2)nc1C#N [Example 33, 6-(3,4-Dichlorophenoxy)-3-ethylsulfonyl-2-pyridinecarbonitrile]						50 µg/mL	< 3.1 µg/mL	< 3.1 µg/mL				
CCCSc1ccc(Oc2ccc(Cl)c(Cl)c2)nc1C#N [Example 34, 6-(3,4-Dichlorophenoxy)-3-propylthio-2-pyridinecarbonitrile]	25 µg/mL (≈ 73.7 µM)		> 12.5 µg/mL		1.56 µg/mL (≈ 4.6 µM)	> 50 µg/mL	3.13 µg/mL (≈ 9.23 µM)	0.08 µg/mL (≈ 0.236 µM)		1.56 µg/mL (≈ 4.6 µM)		
CCCSc1ccc(Oc2ccc(Cl)c(Cl)c2)c(C#N)n1 [Example 35, 3-(3,4-Dichlorophenoxy)-6-propylthio-2-pyridinecarbonitrile]				0.78 µg/mL (≈ 2.3 µM)	12.5 µg/mL (≈ 36.8 µM)	50 µg/mL		< 3.13 µg/mL	12.5 µg/mL (≈ 36.8 µM)		> 12.5 µg/mL	12.5 µg/mL (≈ 36.8 µM)
CC(C)Sc1ccc(Oc2ccc(Cl)c(Cl)c2)nc1C#N [Example 36, 6-(3,4-Dichlorophenoxy)-3-isopropylthio-2-pyridinecarbonitrile]	1.56 µg/mL (≈ 4.6 µM)		3.13 µg/mL (≈ 9.23 µM)	≤ 1.56 µg/mL		12.5 µg/mL	≤ 1.56 µg/mL	< 1.56 µg/mL				
CC(C)Sc1ccc(Oc2ccc(Cl)c(Cl)c2)c(C#N)n1 [Example 37, 3-(3,4-Dichlorophenoxy)-6-isopropylthio-2-pyridinecarbonitrile]			≤ 1.56 µg/mL	3.13 µg/mL (≈ 9.23 µM)		≥ 25 µg/mL	< 1.56 µg/mL	< 1.56 µg/mL				
CCCCSc1ccc(Oc2ccc(Cl)c(Cl)c2)nc1C#N [Example 38, 6-(3,4-Dichlorophenoxy)-3-(n-butylthio)-2-pyridinecarbonitrile]			12.5 µg/mL (≈ 35.4 µM)	12.5 µg/mL (≈ 35.4 µM)		> 25 µg/mL	6.25 µg/mL (≈ 17.7 µM)	< 1.56 µg/mL				
CCCCSc1ccc(Oc2ccc(Cl)c(Cl)c2)c(C#N)n1 [Example 39, 3-(3,4-Dichlorophenoxy)-6-(n-butylthio)-2-pyridinecarbonitrile]			12.5 µg/mL (≈ 35.4 µM)	> 25 µg/mL		≥ 25 µg/mL	3.13 µg/mL (≈ 8.86 µM)	1.56 µg/mL (≈ 4.42 µM)				
CCC(C)Sc1ccc(Oc2ccc(Cl)c(Cl)c2)nc1C#N (stereo not drawn) [Example 40, 6-(3,4-Dichlorophenoxy)-3-(sec-butylthio)-2-pyridinecarbonitrile]	10 µg/mL (≈ 28.3 µM)		1.56 µg/mL (≈ 4.42 µM)	1.56 µg/mL (≈ 4.42 µM)		> 25 µg/mL	1.25 µg/mL (≈ 3.54 µM)	0.16 µg/mL (≈ 0.453 µM)				
CCC(C)Sc1ccc(Oc2ccc(Cl)c(Cl)c2)c(C#N)n1 (stereo not drawn) [Example 41, 3-(3,4-Dichlorophenoxy)-6-(sec-butylthio)-2-pyridinecarbonitrile]			< 1.56 µg/mL	6.25 µg/mL (≈ 17.7 µM)		> 25 µg/mL	< 1.56 µg/mL	≤ 1.56 µg/mL				
CC(C)CSc1ccc(Oc2ccc(Cl)c(Cl)c2)nc1C#N [Example 42, 6-(3,4-Dichlorophenoxy)-3-(isobutylthio)-2-pyridinecarbonitrile]			6.25 µg/mL (≈ 17.7 µM)	12.5 µg/mL (≈ 35.4 µM)		> 25 µg/mL	6.25 µg/mL (≈ 17.7 µM)	< 1.56 µg/mL				
CC(C)CSc1ccc(Oc2ccc(Cl)c(Cl)c2)c(C#N)n1 [Example 43, 3-(3,4-Dichlorophenoxy)-6-(isobutylthio)-2-pyridinecarbonitrile]			3.13 µg/mL (≈ 8.86 µM)	12.5 µg/mL (≈ 35.4 µM)		≥ 25 µg/mL	≤ 1.56 µg/mL	1.56 µg/mL (≈ 4.42 µM)				
